# ChEMBL document CHEMBL5325461, “Effect of a new squalene synthase inhibitor on an ApoE-/- mouse model of atherosclerosis” (Bioorg Med Chem, 2023)
# Activity calls are given as the source filed them. The rule behind the calls is not given here.
# Legend:
# [1] = tested on: Mus musculus; assay: Antiatherosclerotic activity in atherogenic western diet fed ApoE-/- C57BL/6 mouse model assessed as reduction in atherosclerosis severity in ascending aorta at 56 umol/kg, ip administered twice daily for 3.5 months by H&E staining based analysis; format: functional, organism-based; settings: dose 56.0 µmol/kg
# [2] = tested on: Mus musculus; assay: Antiatherosclerotic activity in atherogenic western diet fed ApoE-/- C57BL/6 mouse model assessed as reduction in perimeter of ascending aorta covered by atheromatic spots/lesions at 56 umol/kg, ip administered twice daily for 3.5 months relative to control; format: functional; set-up: scale not given: the % may be the effect or the level left; settings: dose 56 µmol/kg, 2555 h
# [3] = tested on: Mus musculus; assay: Antiatherosclerotic activity in atherogenic western diet fed ApoE-/- C57BL/6 mouse model assessed as reduction in fat deposition in ascending aorta at 56 umol/kg, ip administered twice daily for 3.5 months by H&E staining based analysis; format: functional, organism-based; settings: dose 56.0 µmol/kg
# [4] = tested on: Mus musculus; assay: Antihyperglycemic activity in atherogenic western diet fed ApoE-/- C57BL/6 mouse model assessed as decrease in glucose level at 56 umol/kg, ip administered twice daily for 3.5 months by glucometer analysis relative to control; format: functional; set-up: scale not given: the % may be the effect or the level left; settings: dose 56 µmol/kg, 2555 h
# [5] = tested on: Mus musculus; assay: Antiatherosclerotic activity in atherogenic western diet fed ApoE-/- C57BL/6 mouse model assessed as reduction in atheromatic spots in aortic sinus at 56 umol/kg, ip administered twice daily for 3.5 months by H&E staining based analysis; format: functional, organism-based; settings: dose 56.0 µmol/kg
# [6] = tested on: Mus musculus; assay: Antioxidant activity in atherogenic western diet fed ApoE-/- C57BL/6 mouse model assessed as decrease in MDA level at 56 umol/kg, ip administered twice daily for 3.5 months relative to control; format: functional; set-up: scale not given: the % may be the effect or the level left; settings: dose 56 µmol/kg, 2555 h
# [7] = tested on: Mus musculus; assay: Antihypercholesterolemic activity in atherogenic western diet fed SKH2 mouse model assessed as decrease in total cholesterol level at 56 umol/kg, ip administered twice daily for 3.5 months relative to control; format: functional; set-up: scale not given: the % may be the effect or the level left; settings: dose 56 µmol/kg, 2555 h
# [8] = Hepatotoxicity in atherogenic western diet fed ApoE-/- C57BL/6 mouse model assessed as increase in SGOT level at 56 umol/kg, ip administered twice daily for 3.5 months; format: toxicity, organism-based; settings: in vivo, 2555 h, dose 56 µmol/kg
# [9] = tested on: Mus musculus; assay: Antiatherosclerotic activity in atherogenic western diet fed ApoE-/- C57BL/6 mouse model assessed as reduction in atheromatic spots in aortic arch at 56 umol/kg, ip administered twice daily for 3.5 months by H&E staining based analysis; format: functional, organism-based; settings: dose 56.0 µmol/kg
# [10] = Hepatotoxicity in atherogenic western diet fed ApoE-/- C57BL/6 mouse model assessed as effect on GGT level at 56 umol/kg, ip administered twice daily for 3.5 months; format: toxicity, organism-based; settings: in vivo, 2555 h, dose 56 µmol/kg
# [11] = tested on: Mus musculus; assay: Antiatherosclerotic activity in atherogenic western diet fed ApoE-/- C57BL/6 mouse model assessed as decrease in LDL level in plasma at 56 umol/kg, ip administered twice daily for 3.5 months; format: functional, organism-based; settings: dose 56.0 µmol/kg
# [12] = tested on: Mus musculus; assay: Antiatherosclerotic activity in atherogenic western diet fed ApoE-/- C57BL/6 mouse model assessed as decrease in LDL level in plasma at 56 umol/kg, ip administered twice daily for 3.5 months relative to control; format: functional; set-up: scale not given: the % may be the effect or the level left; settings: dose 56 µmol/kg, 2555 h
# [13] = tested on: Mus musculus; assay: Antiatherosclerotic activity in atherogenic western diet fed ApoE-/- C57BL/6 mouse model assessed as decrease in total cholesterol level in plasma at 56 umol/kg, ip administered twice daily for 3.5 months relative to control; format: functional; set-up: scale not given: the % may be the effect or the level left; settings: dose 56 µmol/kg, 2555 h
# [14] = tested on: Mus musculus; assay: Antiatherosclerotic activity in atherogenic western diet fed ApoE-/- C57BL/6 mouse model assessed as decrease in total cholesterol level in plasma at 56 umol/kg, ip administered twice daily for 3.5 months; format: functional, organism-based; settings: dose 56.0 µmol/kg
# [15] = tested on: Mus musculus; assay: Antihypercholesterolemic activity in atherogenic western diet fed SKH2 mouse model assessed as increase in HDL level at 56 umol/kg, ip administered twice daily for 3.5 months relative to control; format: functional; settings: dose 56 µmol/kg, 2555 h
# [16] = tested on: Mus musculus; assay: Antiatherosclerotic activity in atherogenic western diet fed ApoE-/- C57BL/6 mouse model assessed as reduction in lesion area in ascending aorta at 56 umol/kg, ip administered twice daily for 3.5 months by H&E staining based analysis; format: functional, organism-based; settings: dose 56.0 µmol/kg
# [17] = Hepatotoxicity in atherogenic western diet fed ApoE-/- C57BL/6 mouse model assessed as increase in SGPT level at 56 umol/kg, ip administered twice daily for 3.5 months; format: toxicity, organism-based; settings: in vivo, 2555 h, dose 56 µmol/kg
# [18] = tested on: Mus musculus; assay: Antihypercholesterolemic activity in atherogenic western diet fed SKH2 mouse model assessed as decrease in LDL level at 56 umol/kg, ip administered twice daily for 3.5 months relative to control; format: functional; set-up: scale not given: the % may be the effect or the level left; settings: dose 56 µmol/kg, 2555 h
# [19] = tested on: Mus musculus; assay: Antiatherosclerotic activity in atherogenic western diet fed ApoE-/- C57BL/6 mouse model assessed as reduction in atheromatic lesions in aortic arch at 56 umol/kg, ip administered twice daily for 3.5 months by H&E staining based analysis; format: functional, organism-based; settings: dose 56.0 µmol/kg
# [20] = Hepatotoxicity in atherogenic western diet fed ApoE-/- C57BL/6 mouse model assessed as effect on ALP level at 56 umol/kg, ip administered twice daily for 3.5 months; format: toxicity, organism-based; settings: in vivo, 2555 h, dose 56 µmol/kg
# [21] = Hepatotoxicity in atherogenic western diet fed ApoE-/- C57BL/6 mouse model assessed as edema at 56 umol/kg, ip administered twice daily for 3.5 months; format: toxicity, organism-based; settings: in vivo, 2555 h, dose 56 µmol/kg
# [22] = tested on: Mus musculus; assay: Antiatherosclerotic activity in atherogenic western diet fed ApoE-/- C57BL/6 mouse model assessed as reduction in area of ascending aorta covered by atheromatic spots/lesions at 56 umol/kg, ip administered twice daily for 3.5 months relative to control; format: functional; set-up: scale not given: the % may be the effect or the level left; settings: dose 56 µmol/kg, 2555 h
# [23] = Hepatotoxicity in atherogenic western diet fed ApoE-/- C57BL/6 mouse model assessed as degeneration at 56 umol/kg, ip administered twice daily for 3.5 months; format: toxicity, organism-based; settings: in vivo, 2555 h, dose 56 µmol/kg
# [24] = tested on: Mus musculus; assay: Antiatherosclerotic activity in atherogenic western diet fed ApoE-/- C57BL/6 mouse model assessed as reduction in atheromatic lesions in aortic sinus at 56 umol/kg, ip administered twice daily for 3.5 months by H&E staining based analysis; format: functional, organism-based; settings: dose 56.0 µmol/kg
# [25] = Toxicity in western diet fed ApoE-/- C57BL/6 mouse model assessed as weight change at 56 umol/kg, ip administered twice daily for 3.5 months; format: organism-based; settings: in vivo, 2555 h, dose 56 µmol/kg
# [26] = tested on: Mus musculus; assay: Antiatherosclerotic activity in atherogenic western diet fed ApoE-/- C57BL/6 mouse model assessed as effect on HDL/LDL index in plasma at 56 umol/kg, ip administered twice daily for 3.5 months; format: functional, organism-based; settings: dose 56.0 µmol/kg
compound,measurement,setting,value
Br.CN1CCOC(O)(c2ccc3c(c2)Sc2ccccc2N3)C1 (stereo unspecified),Activity,[1],Active
same,Activity,[2],70%
same,Activity,[3],Active
same,Activity,[4],19%
same,Activity,[5],Active
same,Activity,[6],41%
same,Activity,[7],53%
same,Activity,[8],Non-Toxic
same,Activity,[9],Active
same,Activity,[10],Non-Toxic
same,Activity,[11],Active
same,Activity,[12],20%
same,Activity,[13],20%
same,Activity,[14],Active
same,Activity,[15],>100%
same,Activity,[16],Active
same,Activity,[17],Non-Toxic
same,Activity,[18],76%
same,Activity,[19],Active
same,Activity,[20],Non-Toxic
same,Activity,[21],Non-Toxic
same,Activity,[22],55%
same,Activity,[23],Non-Toxic
same,Activity,[24],Active
same,Activity,[25],Non-Toxic
same,Activity,[26],Active
